Starred links: 1 amine or outer side, 2 acyl side, 3 side chain; linkers in the order of their positions; H or OH if unused. Positions of bridges follow the written chain, without caps; N, C: chain ends. Non-standard residues stand in square brackets, D forms with d. Residues, ends and D or L forms follow the SMILES beside them. X49 = O=C([C@H](CNC[C@@H](O)[C@H](O)[C@@H](O)[C@@H](O)[C@H](O)CO)N[*:1])[*:2]; X40 = O=C([C@H](CNC1[C@@H](O)[C@@H](O)[C@@H](O)[C@H](O)[C@H]1O)N[*:1])[*:2]; X51 = O=C([C@H](CCNC[C@@H](O)[C@@H](O)[C@H](O)[C@H](O)C(O)CO)N[*:1])[*:2]; X50 = O=C([C@H](CNC[C@@H](O)[C@@H](O)[C@H](O)[C@H](O)C(O)CO)N[*:1])[*:2]; X62 = O=C([C@H](CCNC[C@H](O)[C@H](O)[C@@H](O)[C@@H](O)CO)N[*:1])[*:2]; X63 = O=C([C@H](CCNC[C@H](O)[C@@H](O)[C@@H](O)[C@H](O)CO)N[*:1])[*:2]; X11 = O=C([C@H](CNC[C@H](O)[C@@H](O)[C@@H](O)[C@H](O)CO)N[*:1])[*:2]; X35 = O=C([C@H](CNC[C@H](O)[C@H](O)[C@@H](O)[C@@H](O)CO)N[*:1])[*:2]; X8 = O=C([C@H](CNC[C@@H](O)[C@@H](O)[C@@H](O)[C@H](O)CO)N[*:1])[*:2]; X3 = O=C([C@H](CNC[C@@H](O)[C@@H](O)[C@H](O)[C@H](O)CO)N[*:1])[*:2]; Trp(1-CH2COOH) = N[C@@H](Cc1cn(CC(=O)O)c2ccccc12)C(=O)O; Hyp = O=C(O)[C@@H]1C[C@@H](O)CN1; NMeNle = CCCC[C@H](NC)C(=O)O; NMeA = CN[C@@H](C)C(=O)O; Dab = NCC[C@H](N)C(=O)O
Target: T1, PD-1/PD-L1 (Homo sapiens, UniProt Q9NZQ7)
T1 construct: TVMV protease site (linker) (C); made in house; host or cells: HEK293T cells
Assay: PD-1/PD-L1 Homogenous Time-Resolved Fluorescence (HTRF) binding assay
Settings: PD-L1-His 10 nM, PD-1-Ig 20 nM
Procedure, shortened: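 Compounds preincubated 15 min with PD-L1-His (residues 18-239, 10 nM) in dPBS with 0.1% BSA, 0.05% Tween-20, then PD-1-Ig (residues 25-167, 20 nM) for 15 min. Eu-cryptate anti-Ig (1 nM) and APC anti-His (20 nM) equilibrated 30 min; 665/620 nm ratio read, IC50 derived.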

T1 sequence (Q9NZQ7 18-239): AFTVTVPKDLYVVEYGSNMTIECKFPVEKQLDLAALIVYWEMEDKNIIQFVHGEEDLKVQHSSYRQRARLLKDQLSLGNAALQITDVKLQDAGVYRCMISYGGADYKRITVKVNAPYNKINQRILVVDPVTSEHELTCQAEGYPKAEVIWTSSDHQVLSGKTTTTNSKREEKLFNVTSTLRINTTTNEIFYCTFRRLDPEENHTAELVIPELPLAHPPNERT

Compound | IC50
CCCC[C@H]1C(=O)N(C)[C@@H](CCCC)C(=O)N[C@@H](CC(C)C)C(=O)N[C@H](C(=O)NCC(N)=O)CSCC(=O)N[C@@H](Cc2ccc(O)cc2)C(=O)N(C)[C@@H](C)C(=O)N[C@@H](CC(N)=O)C(=O)N2CCC[C@H]2C(=O)N[C@@H](CNC[C@@H](O)[C@H](O)[C@@H](O)[C@@H](O)[C@H](O)CO)C(=O)N[C@@H](CC(C)C)C(=O)N2C[C@H](O)C[C@H]2C(=O)N[C@@H](Cc2c[nH]c3ccccc23)C(=O)N[C@@H](CCN)C(=O)N[C@@H](Cc2cn(CC(=O)O)c3ccccc23)C(=O)N1C [Example 2019] ({CH2CO}-Y[NMeA]NP[X49]L[Hyp]W[Dab][Trp(1-CH2COOH)][NMeNle][NMeNle]LCG-NH2; thioether N-14) | 8.1 nM
CCCC[C@H]1C(=O)N(C)[C@@H](CCCC)C(=O)N[C@@H](CC(C)C)C(=O)N[C@H](C(=O)NCC(N)=O)CSCC(=O)N[C@@H](Cc2ccc(O)cc2)C(=O)N(C)[C@@H](C)C(=O)N[C@@H](CC(N)=O)C(=O)N2CCC[C@H]2C(=O)N[C@@H](CNC[C@@H](O)[C@@H](O)[C@H](O)[C@H](O)C(O)CO)C(=O)N[C@@H](CC(C)C)C(=O)N2C[C@H](O)C[C@H]2C(=O)N[C@@H](Cc2c[nH]c3ccccc23)C(=O)N[C@@H](CCNC[C@@H](O)[C@@H](O)[C@H](O)[C@H](O)C(O)CO)C(=O)N[C@@H](Cc2cn(CC(=O)O)c3ccccc23)C(=O)N1C (stereo partly shown) [Example 2021] ({CH2CO}-Y[NMeA]NP[X50]L[Hyp]W[X51][Trp(1-CH2COOH)][NMeNle][NMeNle]LCG-NH2; thioether N-14) | 8.9 nM
CCCC[C@H]1C(=O)N(C)[C@@H](CCCC)C(=O)N[C@@H](CC(C)C)C(=O)N[C@H](C(=O)NCC(N)=O)CSCC(=O)N[C@@H](Cc2ccc(O)cc2)C(=O)N(C)[C@@H](C)C(=O)N[C@@H](CC(N)=O)C(=O)N2CCC[C@H]2C(=O)N[C@@H](CNC[C@@H](O)[C@@H](O)[C@@H](O)[C@H](O)CO)C(=O)N[C@@H](CC(C)C)C(=O)N2C[C@H](O)C[C@H]2C(=O)N[C@@H](Cc2c[nH]c3ccccc23)C(=O)N[C@@H](CCN)C(=O)N[C@@H](Cc2cn(CC(=O)O)c3ccccc23)C(=O)N1C [Example 2022] ({CH2CO}-Y[NMeA]NP[X8]L[Hyp]W[Dab][Trp(1-CH2COOH)][NMeNle][NMeNle]LCG-NH2; thioether N-14) | 8.6 nM
CCCC[C@H]1C(=O)N(C)[C@@H](CCCC)C(=O)N[C@@H](CC(C)C)C(=O)N[C@H](C(=O)NCC(N)=O)CSCC(=O)N[C@@H](Cc2ccc(O)cc2)C(=O)N(C)[C@@H](C)C(=O)N[C@@H](CC(N)=O)C(=O)N2CCC[C@H]2C(=O)N[C@@H](CNC[C@H](O)[C@H](O)[C@@H](O)[C@@H](O)CO)C(=O)N[C@@H](CC(C)C)C(=O)N2C[C@H](O)C[C@H]2C(=O)N[C@@H](Cc2c[nH]c3ccccc23)C(=O)N[C@@H](CCNC[C@H](O)[C@H](O)[C@@H](O)[C@@H](O)CO)C(=O)N[C@@H](Cc2cn(CC(=O)O)c3ccccc23)C(=O)N1C [Example 2023] ({CH2CO}-Y[NMeA]NP[X35]L[Hyp]W[X62][Trp(1-CH2COOH)][NMeNle][NMeNle]LCG-NH2; thioether N-14) | 6.1 nM

Second part, the molecule after the results:

IC50 | Compound
5 nM | CCCC[C@H]1C(=O)N(C)[C@@H](CCCC)C(=O)N[C@@H](CC(C)C)C(=O)N[C@H](C(=O)NCC(N)=O)CSCC(=O)N[C@@H](Cc2ccc(O)cc2)C(=O)N(C)[C@@H](C)C(=O)N[C@@H](CC(N)=O)C(=O)N2CCC[C@H]2C(=O)N[C@@H](CNC2[C@@H](O)[C@@H](O)[C@@H](O)[C@H](O)[C@H]2O)C(=O)N[C@@H](CC(C)C)C(=O)N2C[C@H](O)C[C@H]2C(=O)N[C@@H](Cc2c[nH]c3ccccc23)C(=O)N[C@@H](CCN)C(=O)N[C@@H](Cc2cn(CC(=O)O)c3ccccc23)C(=O)N1C (stereo partly shown) [Example 2020] ({CH2CO}-Y[NMeA]NP[X40]L[Hyp]W[Dab][Trp(1-CH2COOH)][NMeNle][NMeNle]LCG-NH2; thioether N-14)
1.6 nM | CCCC[C@H]1C(=O)N(C)[C@@H](CCCC)C(=O)N[C@@H](CC(C)C)C(=O)N[C@H](C(=O)NCC(N)=O)CSCC(=O)N[C@@H](Cc2ccc(O)cc2)C(=O)N(C)[C@@H](C)C(=O)N[C@@H](CC(N)=O)C(=O)N2CCC[C@H]2C(=O)N[C@@H](CNC[C@@H](O)[C@@H](O)[C@H](O)[C@H](O)CO)C(=O)N[C@@H](CC(C)C)C(=O)N2C[C@H](O)C[C@H]2C(=O)N[C@@H](Cc2c[nH]c3ccccc23)C(=O)N[C@@H](CCN)C(=O)N[C@@H](Cc2cn(CC(=O)O)c3ccccc23)C(=O)N1C [Example 2024] ({CH2CO}-Y[NMeA]NP[X3]L[Hyp]W[Dab][Trp(1-CH2COOH)][NMeNle][NMeNle]LCG-NH2; thioether N-14)
1.8 nM | CCCC[C@H]1C(=O)N(C)[C@@H](CCCC)C(=O)N[C@@H](CC(C)C)C(=O)N[C@H](C(=O)NCC(N)=O)CSCC(=O)N[C@@H](Cc2ccc(O)cc2)C(=O)N(C)[C@@H](C)C(=O)N[C@@H](CC(N)=O)C(=O)N2CCC[C@H]2C(=O)N[C@@H](CNC[C@H](O)[C@@H](O)[C@@H](O)[C@H](O)CO)C(=O)N[C@@H](CC(C)C)C(=O)N2C[C@H](O)C[C@H]2C(=O)N[C@@H](Cc2c[nH]c3ccccc23)C(=O)N[C@@H](CCNC[C@H](O)[C@@H](O)[C@@H](O)[C@H](O)CO)C(=O)N[C@@H](Cc2cn(CC(=O)O)c3ccccc23)C(=O)N1C [Example 2026] ({CH2CO}-Y[NMeA]NP[X11]L[Hyp]W[X63][Trp(1-CH2COOH)][NMeNle][NMeNle]LCG-NH2; thioether N-14)
